From publication PMC10893060, “Synthesis and Study of the Structure–Activity Relationship of Antiproliferative N-Substituted Isosteviol-Based 1,3-Aminoalcohols” (Pharmaceuticals, 2024)

Key:
[1] = test system: breast carcinoma MDA-MB-231; design: method as in PMID 26101532; conditions: MDA-MB-231, third of three values, order assumed; cited from earlier work
[2] = test system: MDA-MB-231; experiment: MTT antiproliferative assay, MDA-MB-231; format: cell-based; conditions: Homo sapiens, 72 h, no IC50 calculated when less than 50% inhibition at 10 μM
Excerpt: (§1) The antiproliferative activities of the prepared diterpene analogues were studied using an MTT assay on a panel of human adherent cancer lines, including cells from cervical (HeLa), breast (MDA-MB-231, MCF-7), and ovary cancers (A2780), as given in Figure 1 and Table S1 in the Supplementary Materials. A non-malignant fibroblast cell line (NIH/3T3) was also utilised to obtain preliminary information on the cancer selectivity of the tested compounds. Based on the obtained activities, some conclusions could be drawn regarding the structure–activity relationships (SARs). Since neither the key intermediate benzyl ester of hydroxylaldehyde 4 nor the N-Boc protected aminoalcohols (6, 7, 11, 12) or even compound 8 with a free carboxylic function exerted remarkable antiproliferative effects (except for 12 against A2780 ovarian cancer cells), we could conclude that the simultaneous presence of the ester function and the basic secondary amino function were essential for the inhibition of cell growth. […] All active molecules inhibited considerably the proliferation of non-malignant cells, which meant that most currently presented agents were not optimal for further investigations of their anticancer properties.
(§2) The growth-inhibitory effects of the isosteviol-based 1,3-aminoalcohols were determined by a standard MTT (3-(4,5-dimethylthiazol-2-yl)-2,5-diphenyltetrazolium bromide) assay on a panel containing five cell lines, including Hela (cervical cancer), MDA-MB-231 and MCF-7 (breast cancers), and A2780 ovarian cancer cells. All cell lines were purchased from the European Collection of Cell Cultures (Salisbury, UK). The cells were maintained in a minimal essential medium supplemented with 10% foetal bovine serum, 1% non-essential amino acids, and 1% penicillin–streptomycin at 37 °C in a humidified atmosphere containing 5% CO2. All media and supplements were obtained from Lonza Group Ltd. (Basel, Switzerland). Cancer cells were seeded into 96-well plates (5000 cells/well); after overnight incubation, the test compound was added in two different concentrations (10 µM and 30 µM) and incubated for another 72 h under cell-culturing conditions. In the next step, 20 μL of 5 mg/mL of an MTT solution was added to each well and incubated for a further 4 h. The medium was removed and the precipitated formazan crystals were dissolved in DMSO after 60 min of shaking at 37 °C. As a final step, the absorbance was measured at 545 nm by using a microplate reader. Untreated cells were included as controls. […] Two independent experiments were performed with five wells for each condition. Calculations were performed using the GraphPad Prism 10.0 software (GraphPad Software Inc., San Diego, CA, USA).

[3] = test system: MCF-7; experiment: MTT antiproliferative assay, MCF-7; format: cell-based; conditions: Homo sapiens, MCF7, 72 h, no IC50 calculated when less than 50% inhibition at 10 μM
Excerpt: as §1, §2

[4] = test system: HeLa; experiment: MTT antiproliferative assay, HeLa; format: cell-based; conditions: Homo sapiens, 72 h, no IC50 calculated when less than 50% inhibition at 10 μM
Excerpt: as §1, §2

[5] = test system: NIH/3T3; experiment: MTT assay on non-malignant fibroblasts; format: cell-based; conditions: Mus musculus, NIH3T3, 72 h, no IC50 calculated when less than 50% inhibition at 10 μM
Excerpt: as §1, §2

[6] = test system: A2780; experiment: MTT antiproliferative assay, A2780; format: cell-based; conditions: Homo sapiens, 72 h, no IC50 calculated when less than 50% inhibition at 10 μM
Excerpt: as §1, §2

**Q.** For COc1cccc2c1C(=O)c1c(O)c3c(c(O)c1C2=O)C[C@@](O)(C(=O)CO)C[C@@H]3O[C@H]1C[C@H](N)[C@H](O)[C@H](C)O1 [Adriamycin], which IC50 [1] is on record?
**A.** The IC50 was 2.26 µM.

**Q.** With C[C@]12CCC3[C@](CC[C@@H]4[C@](C)(C(=O)O)CCC[C@@]34C)(C1)[C@H](CNCc1ccc(F)cc1)[C@H]2O (stereo partly drawn) [Compound 8, (4R,4aS,6aS,7R,8R,9S,11bS)-7-(((4-Fluorobenzyl)amino)methyl)-8-hydroxy-4,9,11b-trimethyltetradecahydro-6a,9-methanocyclohepta[a]naphthalene-4-carboxylic Acid] as the molecule, how does the IC50 [2] read?
**A.** The IC50 was over 10 µM.

**Q.** And the IC50 [3]?
**A.** Its IC50 is over 10 µM.

**Q.** And the melting point?
**A.** The melting point was 149 to 150 °C.

**Q.** And the IC50 [4]?
**A.** The IC50 was over 10 µM.

**Q.** And the IC50 [5]?
**A.** Its IC50 is over 10 µM.

**Q.** What about the IC50 [6] of the same molecule?
**A.** The IC50 was over 10 µM.

**Q.** Which results are given for C#CCOC(=O)[C@]1(C)CCC[C@@]2(C)C3CC[C@@]4(C)C[C@]3(CC[C@H]12)[C@H](CNCc1ccc(F)cc1)[C@H]4O (stereo partly drawn) [Compound 14, (4R,4aS,6aS,7R,8R,9S,11bS)-Prop-2-yn-1-yl 7-(((4-fluorobenzyl)amino)methyl)-8-hydroxy-4,9,11b-trimethyltetradecahydro-6a,9-methanocyclohepta[a]naphthalene-4-carboxylate]?
**A.** IC50 [2]: 2.23 µM; IC50 [3]: 1.54 µM; melting point: 104 to 105 °C; IC50 [4]: 2.7 µM; IC50 [5]: 5.92 µM; IC50 [6]: 1.36 µM

**Q.** With CC[C@@H](NC[C@@H]1[C@@H](O)[C@@]2(C)CCC3[C@]1(CC[C@@H]1[C@](C)(C(=O)OCc4ccccc4)CCC[C@@]31C)C2)c1ccccc1 (stereo partly drawn) [Compound 16, (4R,4aS,6aS,7R,8R,9S,11bS)-Benzyl 8-hydroxy-4,9,11b-trimethyl-7-((((R)-1-phenylpropyl)amino)methyl)tetradecahydro-6a,9-methanocyclohepta[a]naphthalene-4-carboxylate] as the molecule, how does the IC50 [2] read?
**A.** The IC50 was 4.79 µM.

**Q.** And the IC50 [3]?
**A.** The IC50 was 3.48 µM.

**Q.** And the IC50 [4]?
**A.** The IC50 was 3.86 µM.

**Q.** What about the IC50 [5] of the same molecule?
**A.** Its IC50 is 1.37 µM.

**Q.** And the IC50 [6]?
**A.** Its IC50 is 4 µM.

**Q.** What does the source list for COC(=O)[C@]1(C)CCC[C@@]2(C)C3CC[C@@]4(C)C[C@]3(CC[C@H]12)[C@H](CNCCCn1ccnc1)[C@H]4O (stereo partly drawn) [Compound 28, (4R,4aS,6aS,7R,8R,9S,11bS)-Methyl 7-(((3-(1H-imidazol-1-yl)propyl)amino)methyl)-8-hydroxy-4,9,11b-trimethyltetradecahydro-6a,9-methanocyclohepta[a]naphthalene-4-carboxylate]?
**A.** IC50 [2]: 4.34 µM; IC50 [3]: 3.82 µM; IC50 [4]: 3.72 µM; IC50 [5]: 1.55 µM; IC50 [6]: 4.42 µM

**Q.** What does the source list for COC(=O)[C@]1(C)CCC[C@@]2(C)C3CC[C@@]4(C)C[C@]3(CC[C@H]12)[C@H](CN[C@H](C)c1ccc2ccccc2c1)[C@H]4O (stereo partly drawn) [Compound 27, (4R,4aS,6aS,7R,8R,9S,11bS)-Methyl 8-hydroxy-4,9,11b-trimethyl-7-((((R)-1-(naphthalen-2-yl)ethyl)amino)methyl)tetradecahydro-6a,9-methanocyclohepta[a]naphthalene-4-carboxylate]?
**A.** IC50 [2]: 4.11 µM; IC50 [3]: 2.43 µM; IC50 [4]: 3.4 µM; IC50 [5]: 5.03 µM; IC50 [6]: 3.26 µM

**Q.** What does the source list for CC[C@@H](NC[C@@H]1[C@@H](O)[C@@]2(C)CCC3[C@]1(CC[C@@H]1[C@](C)(C(=O)OC)CCC[C@@]31C)C2)c1ccccc1 (stereo partly drawn) [Compound 24, (4R,4aS,6aS,7R,8R,9S,11bS)-Methyl 8-hydroxy-4,9,11b-trimethyl-7-((((R)-1-phenylpropyl)amino)methyl)tetradecahydro-6a,9-methanocyclohepta[a]naphthalene-4-carboxylate]?
**A.** IC50 [2]: 4.99 µM; IC50 [3]: 2.37 µM; IC50 [4]: 3.04 µM; IC50 [5]: 4.44 µM; IC50 [6]: 4.52 µM
